Measured values from patent US20120020915A1, “Compounds and Methods for Treating Cancer and Diseases of the Central Nervous System” (QUEENS UNIVERSITY AT KINGSTON, priority 2007, published 2012).
Entries after “also recorded” stand apart in the source; their conditions may differ.

Assays:
[1] = test system: hHO-1 transfected primary rat astroglial cultures; experiment: Protein carbonyl assay (ELISA) in hHO-1 transfected rat astroglia, whole-cell and mitochondrial fractions; assay type: cell-based; conditions: whole cell and mitochondrial compartments; for oxidative protein damage (protein carbonyls) accruing from hHO-1 transfection: 6.5 μM; for dose dependence of attenuation of oxidative protein damage: transiently transfected rat astroglia, hydrochloride
Procedure: Cells were grown in Ham's F12 and high glucose DMEM (50:50 v/v) supplemented with 10 mM HEPES, 5% heat-inactivated horse serum, 5% heat-inactivated fetal bovine serum, and penicillin-streptomycin (50 U/mL and 50 μg/mL, respectively).
(§1) Upon reaching >90% confluence, 1×10^6 cells were transiently transfected with 4.0 μg of plasmid DNA-Lipofectamine 2000 complex using Lipofectamine 2000 method according to manufacturer instructions (Invitrogen). […] 12 μg of plasmid DNA and 16 μl of Lipofectamine 2000 reagent were diluted in 1.5 mL opti-MEM I reduced serum medium and incubated for 5 minutes at room temperature with gentle mixing. The two solutions were combined, incubated at room temperature for 20 minutes to promote formation of DNA-lipid complexes and administered to the cells. 2 mL opti-MEM I reduced serum medium was added to the flasks to ensure coverage of the monolayer by the transfection mixture. Following incubation for 6 hours at 37° C., the transfection mixture was replaced with 10 mL of complete media without antibiotics.
The cells were sonicated (Sonics & Materials, Danbury, Conn.) at a power level of 50 for 3×20 s in a cooled water bath. […] Whole-cell and mitochondrial preparations were assayed for protein carbonyls as described below.
Protein carbonyls were reacted with 2,4-dinitrophenylhydrazine (DNP) and the hydrazone adducts were detected with anti-DNP antisera. Quantification was achieved by comparison with oxidized BSA standards. Oxidized (carbonylated) BSA was prepared by reacting natural BSA (at 50 mg/mL in PBS) with hypochlorous acid (5 mM) for 1 h at 37° C., followed by overnight dialysis against PBS at 4° C. […] The pellet was resuspended in 2 mL of same buffer, sonicated on ice 2×15 s at 20 W and centrifuged for 20 min at 4° C. at 1,303×g. Protein concentration of supernatant was measured with the RC DC protein assay based on the Lowry protocol (Bio-Rad Laboratories, Hercules, Calif.). All samples were adjusted to 4.0 mg protein/mL. […] Five microliters aliquots of each reaction mixture were mixed with 1 mL PBS and 200 μL replicates were added per well to 96-well immunoplates and incubated overnight at 4° C. After washing with PBS, nonspecific binding sites were blocked with 0.1% Tween 20 in PBS. […] A 6-point standard curve of reduced and oxidized BSA was generated for each plate analyzed. Specific absorbance for each sample was calculated by subtracting basal absorbance of the DNP reagent from the total absorbance.

[2] = biological target: T1, heme oxygenase activity in hHO-1-transfected astrocytes (Homo sapiens, UniProt P09601); experiment: In vitro HO enzyme activity (bilirubin formation) in hHO-1 transfected cells; assay type: cell-based; conditions: 6.5 μM, 18 h; hydrochloride
T1 construct: containing the entire protein-coding region (866 bp) of the human HO-1 gene; expressed in transfected cells; host or cells: primary rat astrocytes (also rat C6 glioma and human pancreatic tumor cells), transient transfection with Lipofectamine 2000
T1 sequence (P09601 1-288): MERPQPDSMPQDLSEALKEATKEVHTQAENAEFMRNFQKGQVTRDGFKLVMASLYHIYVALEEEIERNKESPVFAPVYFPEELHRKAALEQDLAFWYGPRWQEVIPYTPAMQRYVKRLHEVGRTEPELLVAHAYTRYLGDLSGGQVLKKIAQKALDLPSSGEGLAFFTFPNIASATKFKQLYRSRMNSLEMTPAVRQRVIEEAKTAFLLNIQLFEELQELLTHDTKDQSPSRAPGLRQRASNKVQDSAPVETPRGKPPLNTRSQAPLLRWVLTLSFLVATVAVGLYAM
Procedure: as §1
Cytosol extracts were prepared for HO activity measurement by the method of Ryter (Ryter, Kvam, Tyrrell 2000). […] Protein concentration of supernatant was measured with Bradford method. […] HO activity was calculated as nanomoles bilirubin per miligram protein per min, assuming an extinction coefficient of 40/mM/cm in chloroform (see FIG. 8).

[3] = test system: flag-tagged HO-1 protein; experiment: Western blot of flag-tagged HO-1 protein in transfected cells; assay type: cell-based, human; conditions: 6.5 μM, transiently transfected cells
Procedure: Cells were rinsed twice with cold PBS (pH 7.4) and scraped in iced lysis buffer consisting of 1% Nonidet P-40, 50 mM Tris.HCl (pH 7.4), 30 mM NaCl, 25 mM β-glycerophosphate, 10 mM EDTA, 10 mM EGTA, 1 mM MgCl2, and protease inhibitors (10 mM sodium fluoride, 50 μg/mL AEBBSF, 5 μg/mL leupeptin, 5 μg/mL pepstatin, 5 μg/mL aprotinin). Supernatants were obtained by centrifugation at 15,000 rpm for 15 min at 4° C. Protein contents were determined using the Bradford method. Twenty μg aliquots plus 6×SDS-PAGE loading buffer (300 mM Tris.HCl pH 6.8, 600 mM DTT, 12% SDS, 0.6% bromophenol blue, 60% glycerol) were subjected to 10% sodium dodecyl sulfate-polyacrylamide gel electrophoresis and transferred to the polyvinylidene fluoride membranes. Nonspecific binding was blocked by incubation in Tris buffer saline (pH 7.4) containing 3% nonfat milk and 0.1% Tween 20 for 1 h at room temperature. Blots were probed with mouse anti-FLAG monoclonal antibody (1:200 diluted) and anti-β-actin monoclonal antibody (1:500 diluted). The secondary antibody consisted of horseradish peroxidase-conjugated goat anti-mouse antibody (1:4000 dilution). Protein bands were visualized by enhanced chemiluminescence using ECL western blotting reagents.

[4] = test system: human pancreatic tumor cells; experiment: Cell proliferation assay ([3H] thymidine incorporation), pancreatic tumor cells; assay type: cell-based; conditions: 6.5 μM, 18 h
[5] = test system: B16-BL6 cells (mouse melanoma); experiment: Metastatic B16-BL6 melanoma model, lung surface metastases; assay type: in vivo; conditions: vehicle control: 101
Procedure: B16-BL6 cells (mouse melanoma). B16-BL6 metastatic variant was derived from B16-F10. This cell variant was obtained from Dr. Linda D. Williams, Dept. of Cancer Biology, MD Anderson Cancer Center, Texas, USA. […] Cells were maintained at 37° C. in a humidified atmosphere (5% CO2, 95% air).
Control groups received the vehicle alone.

| SMILES | oxidative protein damage (protein carbonyls) accruing from hHO-1 transfection [1] | dose dependence of attenuation of oxidative protein damage [1] | heme oxygenase activity in hHO-1 transfected cells [2] | expression level of flag-tagged HO-1 protein [3] | 3H-thymidine incorporation, non-transfected cells ([4]; compared to untreated cells, hydrochloride) | 3H-thymidine incorporation, hHO-1 transfected cells ([4]; hHO-1 transfected human pancreatic tumor cells) | macroscopic nodules in the lungs (average) [5] |
| --- | --- | --- | --- | --- | --- | --- | --- |
| Brc1ccc(CCC2(Cn3ccnc3)OCCO2)cc1.Cl [QC-56, 1-((2-(2-(4-Bromophenyl)ethyl)-1,3-dioxolan-2-yl)methyl)-1H-imidazole hydrochloride] | significantly attenuated oxidative protein damage | significant dose dependant attenuations of oxidative protein damage; also recorded: in a dose dependent manner significantly decreased the amount of oxidative damage; also recorded: significant dose-dependant attenuations of oxidative protein damage | suppressed to levels akin to those of non-transfected and sham-transfected controls; also recorded: significantly attenuated heme oxygenase activity; also recorded: significantly decreased the activity of heme oxygenase-1 | without affecting the expression level | significantly attenuated ^3H-thymidine incorporation; also recorded: marked reduction in the rate of cellular proliferation | significantly attenuated the effects of hHO-1 transfection on ^3H-thymidine incorporation | 51 nodules |
| Cl.FC[C@@H]1CO[C@@](CCc2ccc(Cl)cc2)(Cn2ccnc2)O1 [QC-47, (2R,4S)-1-{2-[2-(4-Chlorophenyl)ethyl]-4-fluoromethyl-[1,3]dioxolan-2-ylmethyl}-1H-imidazole hydrochloride] | significantly attenuated oxidative protein damage | significant dose dependant attenuations of oxidative protein damage; also recorded: in a dose dependent manner significantly decreased the amount of oxidative damage | suppressed to levels akin to those of non-transfected and sham-transfected controls; also recorded: significantly attenuated heme oxygenase activity; also recorded: significantly decreased the activity of heme oxygenase-1 | without affecting the expression level | – | – | – |
